The compounds below were run against skeletal myofibrils (myosin ATPase activity) (assay: Skeletal Myofibril ATPase Assay). Conditions: PK-LDH coupled, absorbance at 340 nm.
Format: biochemical
Description: Overview: Myosin ATPase activity is assessed by using a coupled reaction system, in which ADP generated by the myosin ATPase function is coupled to the disappearance of NADH through the pyruvate kinase/lactate dehydrogenase (PK-LDH) system. Myosin ATPase activity produces ADP, which is used as a substrate for PK to produce pyruvate and regenerate ATP. The pyruvate is then used as a substrate by LDH to oxidize NADH to NAD+. The rate of the reaction is monitored through the time-dependent disappearance of NADH using absorbance at 340 nm. Inhibition of ATPase activity by the assayed compounds is indicated by a reduced rate of NADH loss, relative to vehicle-treated controls, over the experimental time window. To assess the selectivity of the assayed compounds for skeletal myofibrils, the compounds are counter-screened in cardiac myofibrils.
Materials: The following stock solutions and reagents were used in the Skeletal Myofibril ATPase Assay:
Stock Solutions of pCa buffer. Combine PIPES, CaCl2, and EGTA solutions with 70 mL of water. Adjust pH to 7.0 and bring final volume to 100 mL.
Skeletal Myofibril ATPase Assay Procedure: BSA, ATP, NADH, PEP, and DTT solutions were thawed at room temperature, then transferred to ice. Pellet-frozen myofibrils (approximately twice the required volume) were transferred into a sufficiently large tube and capped. Myofibrils were thawed by rolling in a water bath for approximately 15 min at room temperature and cooled on ice. Buffers A and B were prepared by adjusting volumes as necessary for required number of wells and stored on ice. 0.5 μL of the compounds to be assayed were added into wells of a 384-well plate. Buffers A and B were mixed by inversion immediately prior to use, then 25 μL of each was dispensed using a Multidrop dispenser (Buffer A first, then Buffer B). The absorbance within the wells was measured at 340 nm, using a kinetic protocol in which the wells are read every 1.5-2 min for 1 h. The reaction rate was qualitatively assessed by subtracting the minimum absorbance value from the maximum value for each well, using either the SoftMax Pro plate reader software or a spreadsheet program such as Excel. Using GraphPad Prism 8.0, the data was normalized, with 100% activity defined as the absorbance change in the 1% DMSO vehicle wells and 0% assigned to no change in absorbance over the course of the experiment. The normalized data were fit to a variable-slope four-parameter logistic model, constraining the bottom to be 0 or greater. Compounds of Table 1 to 4 were tested and results of the assay appear in Table 5 herein. A=IC50 is less than or equal to 10 μM; B=IC50 is greater than 10 μM and less than 100 μM; C=IC50 is greater than 100 μM; […].
With O=c1ccc(-c2cnc(N3CCCC3C(F)(F)F)nc2)nn1Cc1cncc(F)c1 (stereo not drawn) [Compound 54, 2-((5-fluoropyridin-3-yl)methyl)-6-(2-(2-(trifluoromethyl)pyrrolidin-l-yl)pyrimidin-5-yl)pyridazin-3(2H)-one] the IC50 was under 10 µM. Work on O=c1ccc(-c2cnc(OCC(F)(F)F)nc2)nn1Cc1nc2cc(F)ccc2o1 [Compound 55, 2-((5-fluorobenzo[d]oxazol-2-yl)methyl)-6-(2-(2,2,2,- trifluoroethoxy)pyrimidin-5-yl)pyridazin-3(2H)-one] yielded an IC50 of under 10 µM. Compound COCc1cc(Cn2nc(-c3cnc(OCC(F)(F)F)nc3)ccc2=O)on1 [Compound 56, 2-((3-(methoxymethyl)isoxazol-5-yl)methyl)-6-(2-(2,2,2-trifluoroethoxy)pyrimidin-5-yl)pyridazin-3(2H)-one] has an IC50 of under 10 µM. N#Cc1cncc(Cn2nc(-c3ccc(OC(F)F)nc3)ccc2=O)c1 [Compound 57, 5-((3-(6-(difluoromethoxy)pyridin-3-yl)-6-oxopyridazin-1(6H)-yl)methyl)nicotinonitrile] was tested, and the IC50 was 10 to 100 µM. Cn1cc(Cn2nc(-c3cnc(OCC(F)(F)F)nc3)ccc2=O)cn1 [Compound 58, 2-((1-methyl-1H-pyrazol-4-yl)methyl)-6-(2-(2,2,2-trifluoroethoxy)pyrimidin-5-yl)pyridazin-3(2H)-one] was tested, and the IC50 was under 10 µM. For O=c1ccc(-c2cnc(OCC(F)(F)F)nc2)nn1Cc1cncs1 [Compound 59, 2-(thiazol-5-ylmethyl)-6-(2-(2,2,2-trifluoroethoxy)pyrimidin-5-yl)pyridazin-3(2H)-one], the IC50 was under 10 µM. Compound Cc1ncc(Cn2nc(-c3cnc(OCC(F)(F)F)nc3)ccc2=O)o1 [Compound 60, 2-((2-methyloxazol-5-yl)methyl)-6-(2-(2,2,2-trifluoroethoxy)pyrimidin-5-yl)pyridazin-3(2H)-one] has an IC50 of under 10 µM. Cc1ncc(Cn2nc(-c3cnc(OCC(F)(F)F)nc3)ccc2=O)s1 [Compound 61, 2-((2-methylthiazol-5-yl)methyl)-6-(2-(2,2,2-trifluoroethoxy)pyrimidin-5-yl)pyridazin-3(2H)-one] gave an IC50 of under 10 µM. In the case of O=c1ccc(-c2cnc(NC34CC(C3)C4)nc2)nn1Cc1cncc(F)c1 [Compound 64, 6-(2-(bicyclo[1.1.1]pentan-1-ylamino)pyrimidin-5-yl)-2-((5-fluoropyridin-3-yl)methyl)pyridazine-3(2H)-one], the IC50 is reported as under 10 µM. In the case of CSc1ncc(-c2ccc(=O)n(Cc3cc(C)no3)n2)cn1 [Compound 65, 2-((3-methylisoxazol-5-yl)methyl)-6-(2-(methylthio)pyrimidin-5-yl)pyridazine-3(2H)-one], the IC50 is reported as under 10 µM. O=c1ccc(-c2cnc(OCC3(F)COC3)nc2)nn1Cc1cncc(F)c1 [Compound 66, 6-(2-((3-fluorooxetan-3-yl)methoxy)pyrimidin-5-yl)-2((5-fluoropyridin-3-yl)methyl)pyridazine-3(2H)-one] showed an IC50 of under 10 µM. CCOc1ncc(-c2ccc(=O)n(Cc3cncc(F)c3)n2)cn1 [Compound 68, 6-(2-ethoxypyrimidin-5-yl)-2-((5-fluoropyridin-3-yl)methyl)pyridazine-3(2H)-one] was tested, and the IC50 was under 10 µM. With COc1ncc(-c2ccc(=O)n(Cc3cncc(F)c3)n2)cn1 [Compound 69, 2-((5-fluoropyridin-3-yl)methyl)-6-(2-methoxypyrimidin-5-yl)pyridazine-3(2H)-one] the IC50 was under 10 µM. Work on COCCOc1ncc(-c2ccc(=O)n(Cc3cncc(F)c3)n2)cn1 [Compound 70, 2-((5-fluoropyridin-3-yl)methyl)-6-(2-(2-methoxyethoxy)pyrimidin-5-yl)pyridazine-3(2H)-one] yielded an IC50 of under 10 µM. O=c1ccc(-c2ccc(NC34CC(C3)C4)nc2)nn1Cc1cccnc1 [Compound 71] gave an IC50 of under 10 µM. O=c1ccc(-c2ccc(NC34CC(C3)C4)nc2)nn1Cc1cncc(F)c1 [Compound 72, 6-(6-(bicyclo[1.1.1]pentan-1-ylamino)pyridin-3-yl)-2-((5-fluoropyridin-3-yl)methyl)pyridazin-3(2H)-one] gave an IC50 of under 10 µM. O=c1ccc(-c2cnc(N3CCC[C@@H]3C(F)(F)F)nc2)nn1Cc1cncc(F)c1 [Compound 73, (R)-2-((5-fluoropyridin-3-yl)methyl)-6-(2-(2-(trifluoromethyl)pyrrolidin-1-yl)pyrimidin-5-yl)pyridazin-3(2H)-one] gave an IC50 of under 10 µM. O=c1ccc(-c2cnc(N3CCC[C@H]3C(F)(F)F)nc2)nn1Cc1cncc(F)c1 [Compound 74, (S)-2-((5-fluoropyridin-3-yl)methyl)-6-(2-(2-(trifluoromethyl)pyrrolidin-1-yl)pyrimidin-5-yl)pyridazin-3(2H)-one] was tested, and the IC50 was under 10 µM. For O=c1ccc(-c2cnc(NC34CC(C3)C4)nc2)nn1Cc1cncc(Cl)c1 [Compound 75, 6-(2-(bicyclo[1.1.1]pentan-1-ylamino)pyrimidin-5-yl)-2-((5-chloropyridin-3-yl)methyl)pyridazin-3(2H)-one], the IC50 was under 10 µM. O=c1ccc(-c2ccc(OC(F)F)nc2)nn1Cc1cncc(C(F)(F)F)c1 [Compound 76, 6-(6-(difluoromethoxy)pyridin-3-yl)-2-((5-(trifluoromethyl)pyridin-3-yl)methyl)pyridazin-3(2H)-one] was tested, and the IC50 was under 10 µM. In the case of O=c1ccc(-c2cnc(OCC(F)(F)F)nc2)nn1Cc1cncc(C(F)(F)F)c1 [Compound 77, 6-(2-(2,2,2-trifluoroethoxy)pyrimidin-5-yl)-2-((5-(trifluoromethyl)pyridin-3-yl)methyl)pyridazin-3(2H)-one], the IC50 is reported as under 10 µM. O=c1ccc(-c2cnc(OCC(F)(F)F)nc2)nn1Cc1cnccc1O [Compound 78, 2-((4-hydroxypyridin-3-yl)methyl)-6-(2-(2,2,2-trifluoroethoxy)pyrimidin-5-yl)pyridazin-3(2H)-one] showed an IC50 of over 100 µM. O=c1ccc(-c2cnc(OCC(F)(F)F)nc2)nn1Cc1cnccc1F [Compound 79, 2-((4-fluoropyridin-3-yl)methyl)-6-(2-(2,2,2-trifluoroethoxy)pyrimidin-5-yl)pyridazin-3(2H)-one] showed an IC50 of under 10 µM. Compound O=c1ccc(-c2cnc(OCC(F)(F)F)nc2)nn1Cc1ccc[n+]([O-])c1 [Compound 80, 3-((6-oxo-3-(2-(2,2,2-trifluoroethoxy)pyrimidin-5-yl)pyridazin-1(6H)-yl)methyl)pyridine 1-oxide] has an IC50 of over 100 µM. O=c1ccc(-c2cnc(OCC(F)(F)F)nc2)nn1Cc1cc[n+]([O-])cc1 [Compound 81, 4-((6-oxo-3-(2-(2,2,2-trifluoroethoxy)pyrimidin-5-yl)pyridazin-1(6H)-yl)methyl)pyridine 1-oxide] showed an IC50 of over 100 µM. For O=c1ccc(-c2cnc(OCC(F)(F)F)nc2)nn1Cc1cc(F)c[n+]([O-])c1 [Compound 82, 3-fluoro-5-((6-oxo-3-(2-(2,2,2-trifluoroethoxy)pyrimidin-5-yl)pyridazin-1(6H)-yl)methyl) pyridine 1-oxide], the IC50 was 10 to 100 µM. In the case of Cc1nc(Cn2nc(-c3cnc(OCC(F)(F)F)nc3)ccc2=O)co1 [Compound 83, 2-((2-methyloxazol-4-yl)methyl)-6-(2-(2,2,2-trifluoroethoxy)pyrimidin-5-yl)pyridazin-3(2H)-one], the IC50 is reported as 10 to 100 µM. Work on O=c1ccc(-c2cnc(OCC(F)(F)F)nc2)nn1Cc1cnc(O)c(Cl)c1 [Compound 84, 2-((5-chloro-6-hydroxypyridin-3-yl)methyl)-6-(2-(2,2,2-trifluoroethoxy)pyrimidin-5-yl)pyridazin-3(2H)-one] yielded an IC50 of over 100 µM. With O=c1ccc(-c2cnc(OCC(F)(F)F)nc2)nn1Cc1cnoc1 [Compound 85, 2-(isoxazol-4-ylmethyl)-6-(2-(2,2,2-trifluoroethoxy)pyrimidin-5-yl)pyridazin-3(2H)-one] the IC50 was 10 to 100 µM. For Cc1cc(O)c(Cn2nc(-c3cnc(OCC(F)(F)F)nc3)ccc2=O)cn1 [Compound 86, 2-((4-hydroxy-6-methylpyridin-3-yl)methyl)-6-(2-(2,2,2-trifluoroethoxy)pyrimidin-5-yl)pyridazin-3(2H)-one], the IC50 was over 100 µM. With Cc1ncc(Cn2nc(-c3cnc(OCC(F)(F)F)nc3)ccc2=O)cc1Cl [Compound 87, 2-((5-chloro-6-methylpyridin-3-yl)methyl)-6-(2-(2,2,2-trifluoroethoxy)pyrimidin-5-yl)pyridazin-3(2H)-one] the IC50 was under 10 µM. For O=c1ccc(-c2cnc(OCC(F)(F)F)nc2)nn1Cc1nc(-c2ccc(F)cc2)no1 [Compound 88, 2-((3-(4-fluorophenyl)-1,2,4-oxadiazol-5-yl)methyl)-6-(2-(2,2,2-trifluoroethoxy)pyrimidin-5-yl)pyridazine-3(2H)-one], the IC50 was under 10 µM. With O=c1ccc(-c2cnc(OCC3(F)COC3)nc2)nn1Cc1nc(-c2ccccc2)no1 [Compound 91] the IC50 was under 10 µM.

Source: US11873290B2, “Pyridazinone compounds and uses thereof” (Edgewise Therapeutics, Inc., priority 2018, dated 2024)
